Values quoted from earlier work, collected in patent publication US20130281390A1, “METHOD FOR TREATING DRY EYE” (priority 2010, published 2013).

Tested on: subjects with meibomian gland dysfunction
Details: daily topical administration to the ocular surface

SMILES: CC[C@H]1OC(=O)[C@H](C)[C@@H](O[C@H]2C[C@@](C)(OC)[C@@H](O)[C@H](C)O2)[C@H](C)[C@@H](O[C@@H]2O[C@H](C)C[C@H](N(C)C)[C@H]2O)[C@](C)(O)C[C@@H](C)CN(C)[C@H](C)[C@@H](O)[C@]1(C)O [azithromycin]
- physicochemical properties of the meibum: improved the physicochemical properties of the meibum towards that of normal subjects
